# Reference: patent US12419824B2, “Compounds useful for the treatment and/or care of the skin, hair, nails and/or mucous membranes” (Lubrizol Advanced Materials, Inc., priority 2019, dated 2025)
# Key:
# [1] = test system: human muscular skeletal cells (hSKMC); test: Prevention of TNF-α induced muscle mass loss in human skeletal muscle cells, immunofluorescence (Example 9); format: cell-based; conditions: 0.5 mg/ml with 20 ng/ml TNFα, 48 hours, myotube diameter threshold 20 μm
# Description: Myosin heavy chain (MHyC) is used as a morphologic marker of differentiated myotubes allowing the measurement of their diameter, and therefore knowing their degree of mass loss. Tumor necrosis factor α (TNF-α) has been described in the literature as a muscle mass loss inductor.
# Muscle mass loss prevention by the peptides of the invention is evaluated by an immunofluorescence assay. The aim of this study is to investigate the capacity of peptide candidates to prevent muscular mass loss in presence of TNF-α in human muscular skeletal cells (hSKMC).
# hSKMC (Tebu-Bio) are seeded in 96-well plates at a density of 1.5×10^4 cells/well in Skeletal Muscle Cell Growth Medium (Promocell). After 24 hours incubation, medium is replaced with Skeletal Muscle Cell Differentiation Medium (Promocell) and cells are differentiated for 6 days. After this, fresh differentiation medium with 0.5 mg/ml of test items and 20 ng/ml of TNFα (Sigma) is added. Treatment is continued for 48 hours and non-treated cells are used as basal control and 20 ng/ml TNFα treated cells are used as a muscle mass loss control. […] Finally, myotube diameter is determined by imaging MHyC staining by Operetta™ (Perkin Elmer). Percentage of mass loss is automatically calculated with Harmony™ (Perkin Elmer) software by classifying myotubes according to their diameter using an atrophic threshold of 20 μm. […]
# [2] = test system: human subcutaneous pre-adipocytes; test: Lipid accumulation in human subcutaneous pre-adipocytes, Adipored staining (Example 13); format: cell-based; conditions: coculture of young and old pre-adipocytes, 0.01 mg/ml, 12 days
# From the text: The aim of this study is to investigate the capacity of peptide candidates to induce lipid accumulation in human subcutaneous adipocytes, and therefore prevent adipocytes senescence. Measurement of lipid accumulation in a coculture of young and old adipose cells indirectly evaluates the inhibition of senescence-associated secretory phenotype (SASP). A pool of old adipose cells has a higher number of senescent cells. When cocultured with young cells, lipid accumulation observed is below the theoretically expected levels due to senescence induction effect of SASP on young adipocytes.
# Induction of lipid accumulation by the peptides of the invention is evaluated by lipid fluorescent staining with Adipored® Assay Reagent. Human subcutaneous pre-adipocytes (donors, Cell applications) cells are cocultured in 96-well plates at a density of 4×10^3 cells/well each age in Human Preadipocyte Growth Medium (Sigma). Monoculture of each age are seeded at a density of 8×10^3 cells/well as age lipid accumulation controls. After 24 hours incubation, differentiation of pre-adipocytes into adipocytes is induced by changing medium to fresh Human Preadipocyte Differentiation Medium (Promocell). […] Finally, fluorescence intensity and nuclei number are measured by Operetta™ (Perkin Elmer). Fluorescence is normalized by cell nuclei and results are represented respect to cocultured basal control.
Substance,muscle mass loss compared to TNF-α treatment (prevention) [1],lipid accumulation compared to basal control and old control [2]
Ac-Asp-Val-Tyr-Lys-NH2 (Ac-DVYK-NH2) [PEP1],prevent mass loss,increase lipid accumulation in adipocytes
H-Ala-Leu-Lys-Pro-Asn-Thr-NH2 (H-ALKPNT-NH2) [PEP2],prevent mass loss,increase lipid accumulation in adipocytes
